Ends that are not written are not given here.
Key:
[1] = test system: animal model for ILD; conditions: cited from earlier work
[2] = test system: Healthy AT MSCs; test: ASMA staining (IHC) of Healthy AT MSCs treated with CSD, scrambled CSD and TGFβ; format: cell-based, human
Description: Human MSCs were derived from abdominal fat tissue. SSc ILD and SSc No ILD MSCs are a generous gift from Dr. Del Papa (Milan, Italy). Healthy human MSCs are from Dr. Del Papa and from Lonza. Human MSCs were maintained in the medium previously described (Capelli C. et al., 2017, Cell Transplant. 26:841-854). Early passage cells (passage 1 to 3) were used in all experiments except when late passage cells (passage 5) were specifically used in FIG. 1F.
To induce fibrogenic differentiation in healthy human and mouse MSCs, cells were incubated for 10 days in Maintenance Medium supplemented with TGFβ (10 ng/ml). To determine the effects of knocking down caveolin-1 expression, healthy MSCs were treated with siRNA targeting caveolin-1 according to the manufacturer's instructions (Dharmacon).

[3] = test system: SSc AT MSCs; test: adipocyte induction of SSc AT MSCs ± CSD or scrambled peptide (IHC for ASMA and FABP4); format: cell-based, human; conditions: treatment during adipocyte induction
Experimental: MSCs from healthy and SSc donors were treated with adipocyte induction medium (AIM), from Lonza to induce adipogenesis.
(§1) Adipogenic differentiation was induced by incubating cells for 3 cycles of 3 days in Adipocyte Induction Medium (Lonza) plus 1 day in Maintenance Medium. Adipogenic differentiation was analyzed by IHC and/or Western blotting using appropriate antibodies and by staining with an Oil Red 0 kit (Biovision) according to the manufacturer's instructions.

[4] = test system: Healthy AT MSCs differentiated into adipocytes; test: Healthy AT MSCs already differentiated into adipocytes, then treated ± TGFβ ± CSD, Western blotting; format: cell-based, human
Experimental: To induce MSCs or adipocytes into a profibrotic phenotype, the cells were cultured in the presence of TGFβ.
as §1
MSC cultures were rinsed with PBS. Lysis Buffer (20 mM Tris-HCl (pH 7.5)/1% NP-40/100 mM NaCl/5 mM EDTA/2 mM KCl) supplemented with 1 mM phenylmethylsulfonyl fluoride, protease inhibitor mixture Set V (Calbiochem), and phosphatase inhibitors (10 mM sodium pyrophosphate, 5 mM NaF, 10 mM beta-glycerophosphate, and 10 mM sodium orthovanadate) was added to the plates, the cells scraped into the buffer, frozen, thawed, and the extract clarified by centrifugation (10 min, 12,000 rpm, RT). The protein content of the supernatants was determined, sample buffer added, and the samples were boiled. 5 to 40 μg of protein was loaded per lane depending on the avidity of the primary antibody to be used for detection.

[5] = test system: bleomycin-treated mice; test: bleomycin minipump mouse model, skin fibrosis (dermal thickness, FABP4 IHC); format: in vivo, C57BL/6 mice
Description: (§2) To create a mouse model for autologous MSC treatment, adipose-derived MSCs were isolated from C57/BL6 mice treated with bleomycin, expanded in vitro, then injected systemically via the retro-orbital sinus or subcutaneously into host C57/BL6 mice that had been treated with bleomycin.
The Pump Model (Lee R. et al., 2014, Am. J. Physio. Lung Cell. Mol. Physio. 306:L736-748) is used both to generate MSC donors and host mice receiving MSC therapy. Briefly; under isoflurane anesthesia, mini-osmotic pumps (ALZET 1007D; DURECT Corporation, Cupertino, Calif.) containing 100 μl of bleomycin (67 U/kg) or saline are implanted posterior to the scapulae of 8-10 week old C57BL/6 mice. […]
On day 24, under anesthesia the rib cage was opened, mice systemically perfused via the left ventricle with PBS, then further perfused with Z-Fix (Anatech). […] Lung tissue morphology was evaluated by the Ashcroft Method (Ashcroft T. et al., 1988, J. Clin. Pathol. 41:467-470). Skin tissue morphology was evaluated in terms of the thickness of the dermis and the subdermal adipose layer. Tissue sections were also analyzed by IHC using routine methods (Lee R. et al., 2014, Am. J. Physio. Lung Cell. Mol. Physio. 306:L736-748; Lee R. et al., 2014, Frontiers in Pharma. 5:140; Lee R. et al., 2015, Fibrogen. Tissue Repair, 8:11) and appropriate antibodies.

[6] = test system: bleomycin-treated mice; test: bleomycin minipump mouse model, lung fibrosis (Ashcroft score, ASMA and HSP47 IHC); format: in vivo, C57BL/6 mice
Description: as §2
The Pump Model (Lee R. et al., 2014, Am. J. Physio. Lung Cell. Mol. Physio. 306:L736-748) is used both to generate MSC donors and host mice receiving MSC therapy. Briefly; under isoflurane anesthesia, mini-osmotic pumps (ALZET 1007D; DURECT Corporation, Cupertino, Calif.) containing 100 μl of bleomycin (67 U/kg) or saline are implanted posterior to the scapulae of 8-10 week old C57BL/6 mice. Pumps deliver 0.5 μl/h for 7 days, then are removed by day 10 per the manufacturer's instructions.
Mice were treated with bleomycin or vehicle using osmotic minipumps (Lee et al., 2014, Am J Physiol Lung Cell Mol Physiol, 306:L736-L748). […] Tissue morphology was quantified by the Ashcroft Method (Ashcroft et al., 1988, J Clin Pathol, 41:467-70). […]
On day 24, under anesthesia the rib cage was opened, mice systemically perfused via the left ventricle with PBS, then further perfused with Z-Fix (Anatech). […] Lung tissue morphology was evaluated by the Ashcroft Method (Ashcroft T. et al., 1988, J. Clin. Pathol. 41:467-470). Skin tissue morphology was evaluated in terms of the thickness of the dermis and the subdermal adipose layer. […]

[7] = test system: TGFβ-activated monocytes; test: monocyte migration toward SDF-1; format: cell-based, human
Experimental: Migration experiments were performed using TGFβ-activated monocytes and 100 ng/ml of the chemokine SDF-1 as chemoattractant (Tourkina et al., 2011, Fibrogenesis Tissue Repair, 4:15). Cells were treated with the indicated concentrations of the indicated peptides. Cells that had migrated were counted in six high power fields per filter. Migration is expressed in terms of “Inhibition of Migration”. Each experiment included Control monocytes and the same monocytes treated with TGFβ which enhanced their rate of migration approximately three-fold. […] Intermediate degrees of inhibition were quantified on a linear basis.
To study the structure-activity relationship of CSD to identify an optimal version to be developed for treating fibrotic diseases in human patients, subdomains of CSD were tested for their ability to inhibit the migration of human monocytes. Monocytes from healthy subjects were used which, when activated using TGFβ, migrate at an enhanced rate similar to monocytes from SSc patients (Tourkina et al., 2011, Fibrogenesis Tissue Repair, 4:15).

[8] = test system: mice; conditions: mice receiving CSD treatment; cited from earlier work
[9] = TGFβ after adipocyte differentiation

Molecule | dose working in inhibiting fibrosis [1] [mg/kg/day] | enhanced ASMA expression in cells treated with TGFβ ([2]; healthy MSCs + TGFβ) | baseline expression of ASMA ([2]; healthy MSCs without TGFβ) | number of ASMA+ cells [3] | number of FABP4+ cells [3] | AKT activation [4, 9] | FABP4 expression [4, 9] | fibrogenic effect of TGFβ: increased ASMA expression [4, 9] | fibrogenic effect of TGFβ: increased Col I expression [4, 9] | p38 activation [4, 9] | PPARγ expression ([4]; differentiated adipocytes) | caveolin-1 expression ([4]; differentiated adipocytes) | loss of the intradermal adipose layer (FABP4 staining) [5] | ASMA levels in the bleomycin-treated lung [6] | TGFβ-induced migration ([7]; 50 pg/ml peptide) | inhibition of TGFβ-induced migration ([7]; levels as low as 0.005 pg/ml) | effectiveness relative to pirfenidone in inhibiting fibrosis [1] [fold] | share of treated mice with beneficial effect on lung morphology [8]
Cc1ccc(=O)n(-c2ccccc2)c1 [pirfenidone, reference compound] | 300 | – | – | – | – | – | – | – | – | – | – | – | – | – | – | – | – | –
DGIWKASFTTFTVTKYWFYR-NH2 [CSD, caveolin-1 scaffolding domain peptide, amino acids 82-101 of caveolin-1] | 1 | inhibited | inhibited | decreased | increased | restored | did not restore | reversed | reversed | inhibited | Neither TGFβ nor CSD affected | Neither TGFβ nor CSD affected | reversed | greatly decreased | decreased essentially to the uninduced level | Substantial inhibition | 300 | greater than 50%

— patent US20190224243A1 (MUSC Foundation for Research Development, priority 2018, published 2019)
